Test results taken from the NIST ThermoML archive (doi:10.1021/je050165t).

What was measured:
[1] = xn = mol fraction of the nth substance listed; settings: 101 kPa, Liquid
[2] = 101 kPa, Liquid

CCCCn1cc[n+](C)c1.F[P-](F)(F)(F)(F)F [1-butyl-3-methylimidazolium hexafluorophosphate] + CO
[1]
Settings	mass density, 298.15 K [kg/m3]	mass density, 303.15 K [kg/m3]	mass density, 308.15 K [kg/m3]	mass density, 313.15 K [kg/m3]	mass density, 318.15 K [kg/m3]	speed of sound, 298.15 K [m/s]	speed of sound, 303.15 K [m/s]	speed of sound, 308.15 K [m/s]	speed of sound, 313.15 K [m/s]	speed of sound, 318.15 K [m/s]
x1 = 0.0223	852.499	847.778	843.039	838.277	833.49	1132.1	1116.9	1101.8	1086.7	1071.7
x1 = 0.0484	914.856	910.156	905.442	900.703	895.952	1155.5	1141.5	1127.5	1113.6	1099.7
x1 = 0.0786	972.943	968.272	963.583	958.877	954.071	1180.7	1167.7	1154.6	1141.6	1128.6
x1 = 0.1869	1111.37	1106.76	1102.15	1097.53	1092.91	1261.6	1249.8	1238	1226.1	1214.3
x1 = 0.2156	1136.5	1131.89	1127.3	1122.7	1118.12	1280.7	1268.9	1257.2	1245.5	1233.8
x1 = 0.3573	1223.91	1219.39	1214.87	1210.36	1205.87	1340.7	1329.1	1317.5	1306	1294.5
x1 = 0.4572	1263.6	1259.04	1254.81	1250.5	1246.03	1366.7	1355.1	1343.6	1332.1	1320.7
x1 = 0.6222	1308.96	1304.59	1300.24	1295.96	1291.78	1400.5	1388.9	1377.4	1365.9	1354.7
x1 = 0.7736	1337.5	1333.24	1328.99	1324.76	1320.54	1421.1	1409.5	1398	1386.6	1375.3
x1 = 0.9208	1357.7	1353.55	1349.39	1345.23	1341.08	1435.2	1423.5	1411.9	1400.6	1389.4
x1 = 1	1366.66	1362.4	1358.3	1354.19	1350.08	1442.4	1430.6	1419	1407.5	1396.3

CC#N [acetonitrile]
[2]
Settings	mass density [kg/m3]	speed of sound [m/s]
298.15 K	776.533	1278.6
303.15 K	771.116	1258.7
308.15 K	765.66	1238.7
313.15 K	760.162	1218.5
318.15 K	754.462	1198.3

CC#N [acetonitrile] + CCCCn1cc[n+](C)c1.F[P-](F)(F)(F)(F)F
[1], x2 = 0
Settings	mass density [kg/m3]	speed of sound [m/s]
298.15 K	776.533	1278.6
303.15 K	771.116	1258.7
308.15 K	765.66	1238.7
313.15 K	760.162	1218.5
318.15 K	754.462	1198.3

CO [methanol]
[2]
Settings	mass density [kg/m3]	speed of sound [m/s]
298.15 K	786.531	1102.7
303.15 K	781.808	1086.4
308.15 K	777.066	1070.1
313.15 K	772.283	1054
318.15 K	767.474	1037.9

CO [methanol] + CCCCn1cc[n+](C)c1.F[P-](F)(F)(F)(F)F
[1], x2 = 0
Settings	mass density [kg/m3]	speed of sound [m/s]
298.15 K	786.531	1102.7
303.15 K	781.808	1086.4
308.15 K	777.066	1070.1
313.15 K	772.283	1054
318.15 K	767.474	1037.9
